The test relates to rat tail artery helical strip. Conditions: strips contracted with arginine vasopressin, dose of 100 mg/ml.

Description: Male and female Sprague-Dawley rats were anesthetized with pentobarbital (50 mg/kg) before removal of the tail artery. Upon isolation the artery was placed in ice cold Krebs-Hensleit solution (KHS) which was oxygenated with 95% O2, 5% CO2. The vessels were cut helically and strips of approximately 1.5 cm were secured in a Sawyer-Bartleston chamber containing KHS. The development of force of the helical strips was measured with a Grass FT.03 force displacement transducer and recorded on a Grass Model 79D polygraph. Isolated tail artery helical strips were equilibrated for one hour prior to addition of any peptide. In all cases, the strips were first contracted by adding arginine vasopressin (AVP), to the bath. The peptide being studied was then added to the bath and the degree of relaxation was determined.

`N=C(N)NCCC[C@@H](N)C(=O)O` [D Arg, D-arginine] displayed a Tension change of 0 gm.

For the origin of these results see patent US4687840A, “Hypotensive active peptides” (Texas Tech University Health Sciences Center, priority 1986, dated 1987).
